Where two headings read alike, the source gives them in different places. Blank lines part the entries; values can stand above or below the compound they belong to.
How the values were obtained:
SD(IGS) rats = assay: Evaluation of compounds' effect on food consumption in rats; type: in vivo; details: Rattus norvegicus, fasted SD(IGS) rats, high fat diet; for inhibition in vivo at 10 mg/kg: 10 mg/kg oral; for inhibition in vivo at 1 mg/kg: 1 mg/kg oral
Description: Evaluation of Compounds' Effect on Food Consumption in Rats
SD(IGS) rats (Charles River Japan, Inc., 5-10 weeks of age, male) were used for the pharmacological tests. Rats were individually housed in the room set to a light cycle of lights-out at 10 am and lights-on at 10 pm, and were adapted to high fat diet (35% w/w). They were acclimated for more than 10 days prior to experiments under these conditions.
Based on the food consumption during acclimation and the body weight on the day of experiment, rats were grouped with no difference between groups.
As the test compound, Compounds A-P were used. These test compounds were suspended in 0.5% methyl cellulose solution.
Rats were fasted for about 24 hours before experiment. Each dose of the test compound was orally administered just after the lights-out, and immediately thereafter, the feeding of the high fat diet was resumed. The food weight was measured at 1, 4 and 8 hours after the resumption of the feeding to obtain the cumulative food consumption. The inhibitory rate on food consumption was determined by the following formula using the weight of the cumulative food consumption in each group.
The inhibitory rate on food consumption (%)=(1-test compound group/vehicle group)×100

human DGAT1 = target: T1, human DGAT1 (Homo sapiens, UniProt O75907); assay: Assay of DGAT1 enzyme inhibitory activity (Scintillation Proximity Assay); type: biochemical; details: human DGAT1 membrane fraction from Sf21 cells, 200 μM dioleoyl glycerol, 25 μM 14C decanoyl CoA, SPA; read-out: DGAT1 enzyme inhibitory activity (IC50 class)
T1 construct: FLAG (N); made in house; host or cells: Sf21 insect cells (baculovirus, Bac-to-Bac system); cell membrane fraction
T1 sequence (O75907 1-488): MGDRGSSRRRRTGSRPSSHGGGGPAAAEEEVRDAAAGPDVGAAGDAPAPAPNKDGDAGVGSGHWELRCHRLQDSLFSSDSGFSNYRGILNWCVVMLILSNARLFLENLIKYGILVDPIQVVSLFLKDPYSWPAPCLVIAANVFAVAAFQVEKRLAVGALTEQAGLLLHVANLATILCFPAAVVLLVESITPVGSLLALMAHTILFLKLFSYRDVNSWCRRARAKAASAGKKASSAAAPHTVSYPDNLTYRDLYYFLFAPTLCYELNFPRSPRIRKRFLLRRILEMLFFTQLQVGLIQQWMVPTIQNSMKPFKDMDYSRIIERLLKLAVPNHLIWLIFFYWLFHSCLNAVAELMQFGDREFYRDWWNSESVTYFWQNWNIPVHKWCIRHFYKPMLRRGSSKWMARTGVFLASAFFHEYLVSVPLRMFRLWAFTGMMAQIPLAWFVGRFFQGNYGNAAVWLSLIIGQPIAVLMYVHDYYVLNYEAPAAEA
Description: The enzyme source used for the assay was prepared using a human DGAT1 cDNA isolated from the human liver cDNA library. To be specific, a restriction enzyme cleaving sequence and a flag-labeling sequence were added onto the 5′ side and a restriction enzyme cleaving sequence was added onto the 3′ side of the human DGAT1 cDNA by PCR, and human flag tag DGAT1 baculovirus was prepared using Bac-to-Bac Baculovirus Expression System (Invitrogen). Sf21 insect cells were infected for 24-72 hours, recovered and ruptured in a homogenizing buffer using a microfluidizer. The homogenate was centrifuged at 45,000 rpm for 1 hour, and the cell membrane fractions were recovered and used as an enzyme source.
The DGAT inhibitory activity was measured by Scintillation Proximity Assay (SPA). Human DGAT1 membrane fraction (0.25 μg/well) was mixed with various concentrations of the compound and 200 μM of dioleoyl glycerol (enzyme substrate). […] Wheat Germ Agglutinin (WGA) SPA beads-suspended 6 mM HgCl2 (25 μL) was added to terminate the reaction, and the reaction mixture was kept at room temperature for 2 hours to allow adhesion of produced TG onto the SPA beads together with the cell membrane. The mixture was centrifuged at 2,500 rpm for 5 min to precipitate the SPA beads. The radioactivity was measured using Top Count.

[1] = cumulative food consumption 1 h after resumption of feeding, read-out: inhibitory rate on food consumption, 1 h
[2] = cumulative food consumption 4 h after resumption of feeding, read-out: inhibitory rate on food consumption, 4 h
[3] = cumulative food consumption 8 h after resumption of feeding, read-out: inhibitory rate on food consumption, 8 h

SMILES: CC1(C)Oc2ncnc(N)c2N=C1c1ccc([C@H]2CC[C@H](CC(=O)O)CC2)cc1 [Compound A]
inhibition in vivo at 10 mg/kg (SD(IGS) rats; [1]): 29%
inhibition in vivo at 10 mg/kg (SD(IGS) rats; [2]): 37%
inhibition in vivo at 10 mg/kg (SD(IGS) rats; [3]): 30%

IC50 (human DGAT1): > 100 nM
SMILES: CCCc1c(C(=O)OCC)c(C(=O)OCC)c2c(-c3ccccc3)cc(N3CCOCC3)nn12 [Compound B, Diethyl 2-morpholin-4-yl-4-phenyl-7-propylpyrrolo[1,2-b]pyridazine-5,6-dicarboxylate]
inhibition in vivo at 10 mg/kg (SD(IGS) rats; [1]): 26%
inhibition in vivo at 10 mg/kg (SD(IGS) rats; [2]): 14%
inhibition in vivo at 10 mg/kg (SD(IGS) rats; [3]): 4%

SMILES: CC1(C)Oc2ncnc(N)c2N=C1c1ccc([C@H]2CC[C@H](CC(=O)O)CC2)cc1 [Compound C]
inhibition in vivo at 1 mg/kg (SD(IGS) rats; [1]): 24%
inhibition in vivo at 1 mg/kg (SD(IGS) rats; [2]): 30%
inhibition in vivo at 1 mg/kg (SD(IGS) rats; [3]): 19%

SMILES: Cc1nc(N)c2c(n1)OC(C)(C)C(c1ccc([C@H]3CC[C@H](CC(=O)O)CC3)cc1)=N2 [Compound D]
inhibition in vivo at 1 mg/kg (SD(IGS) rats; [1]): 50%
inhibition in vivo at 1 mg/kg (SD(IGS) rats; [2]): 27%
inhibition in vivo at 1 mg/kg (SD(IGS) rats; [3]): 17%

SMILES: Cc1nc(N)c2c(n1)OC(C)(C)C(c1ccc([C@H]3CC[C@H](CNC(=O)CO)CC3)cc1)=N2 [Compound E]
inhibition in vivo at 1 mg/kg (SD(IGS) rats; [1]): 6%
inhibition in vivo at 1 mg/kg (SD(IGS) rats; [2]): 15%
inhibition in vivo at 1 mg/kg (SD(IGS) rats; [3]): 20%

SMILES: Cc1nc(N)c2c(n1)OC(C)(C)C(c1ccc([C@H]3CC[C@H](CCc4nc(=O)on4C)CC3)cc1)=N2 [Compound F]
inhibition in vivo at 1 mg/kg (SD(IGS) rats; [1]): 11%
inhibition in vivo at 1 mg/kg (SD(IGS) rats; [2]): 20%
inhibition in vivo at 1 mg/kg (SD(IGS) rats; [3]): 13%

SMILES: Cc1nc(N)c2c(n1)OC(C)(C)C(c1ccc([C@H]3CC[C@H](CNC(=O)C(C)(C)CO)CC3)cc1)=N2 [Compound G]
inhibition in vivo at 1 mg/kg (SD(IGS) rats; [1]): 29%
inhibition in vivo at 1 mg/kg (SD(IGS) rats; [2]): 19%
inhibition in vivo at 1 mg/kg (SD(IGS) rats; [3]): 15%

SMILES: Cc1nc(N)c2c(n1)OC(C)(C)C(c1ccc([C@H]3CC[C@H](CNC(=O)CO)CC3)c(Cl)c1)=N2 [Compound H]
inhibition in vivo at 1 mg/kg (SD(IGS) rats; [1]): 36%
inhibition in vivo at 1 mg/kg (SD(IGS) rats; [2]): 36%
inhibition in vivo at 1 mg/kg (SD(IGS) rats; [3]): 20%

SMILES: Cc1nc(N)c2c(n1)OC(C)(C)C(c1ccc([C@H]3CC[C@H](CNC(=O)C(C)(C)O)CC3)cc1)=N2 [Compound I]
inhibition in vivo at 1 mg/kg (SD(IGS) rats; [1]): 30%
inhibition in vivo at 1 mg/kg (SD(IGS) rats; [2]): 1%
inhibition in vivo at 1 mg/kg (SD(IGS) rats; [3]): 4%

SMILES: Cc1nc(N)c2c(n1)OC(C)(C)C(c1ccc([C@H]3CC[C@H](Cc4nc(=O)o[nH]4)CC3)cc1)=N2 [Compound J]
inhibition in vivo at 1 mg/kg (SD(IGS) rats; [1]): 8%
inhibition in vivo at 1 mg/kg (SD(IGS) rats; [2]): 23%
inhibition in vivo at 1 mg/kg (SD(IGS) rats; [3]): 10%

SMILES: CC1(C)Oc2nc(C(F)(F)F)nc(N)c2N=C1c1ccc2c(c1)CCC21CCC(CC(=O)O)CC1 (centres unmarked) [Compound K]
inhibition in vivo at 1 mg/kg (SD(IGS) rats; [1]): 19%
inhibition in vivo at 1 mg/kg (SD(IGS) rats; [2]): 37%
inhibition in vivo at 1 mg/kg (SD(IGS) rats; [3]): 22%

IC50 (human DGAT1): 10 to 100 nM
SMILES: Cc1nc(N)c2c(n1)OC(C)(C)C(c1ccc([C@H]3CC[C@H](CN4CCCC(O)C4=O)CC3)cc1)=N2 (some centres unmarked) [Compound L]
inhibition in vivo at 1 mg/kg (SD(IGS) rats; [1]): 10%
inhibition in vivo at 1 mg/kg (SD(IGS) rats; [2]): 16%
inhibition in vivo at 1 mg/kg (SD(IGS) rats; [3]): 9%

SMILES: CC1(C)Oc2nc(C(F)(F)F)nc(N)c2N=C1c1ccc([C@H]2CC[C@H](CC(=O)O)CC2)c(Cl)c1 [Compound M]
inhibition in vivo at 1 mg/kg (SD(IGS) rats; [1]): 26%
inhibition in vivo at 1 mg/kg (SD(IGS) rats; [2]): 12%
inhibition in vivo at 1 mg/kg (SD(IGS) rats; [3]): 14%

SMILES: CC1(C)Oc2nc(C(F)(F)F)nc(N)c2N=C1c1ccc([C@H]2CC[C@H](CNC(N)=O)CC2)c(Cl)c1 [Compound N]
inhibition in vivo at 1 mg/kg (SD(IGS) rats; [1]): 17%
inhibition in vivo at 1 mg/kg (SD(IGS) rats; [2]): 6%
inhibition in vivo at 1 mg/kg (SD(IGS) rats; [3]): 7%

SMILES: Cc1nc(N)c2c(n1)OC(C)(C)C(c1ccc([C@H]3CC[C@H](CNC(N)=O)CC3)c(Cl)c1)=N2 [Compound O]
inhibition in vivo at 1 mg/kg (SD(IGS) rats; [1]): 20%
inhibition in vivo at 1 mg/kg (SD(IGS) rats; [2]): 13%
inhibition in vivo at 1 mg/kg (SD(IGS) rats; [3]): 12%

SMILES: CC1(C)Oc2ncnc(N)c2C=C1c1ccc2c(c1)CC[C@]21CC[C@@H](CC(=O)O)CC1 [Compound P]
inhibition in vivo at 1 mg/kg (SD(IGS) rats; [1]): 20%
inhibition in vivo at 1 mg/kg (SD(IGS) rats; [2]): 36%
inhibition in vivo at 1 mg/kg (SD(IGS) rats; [3]): 28%
